Columns and labels:
[1] = biological target: T1, recombinant human Meningioma Expressed Antigen 5 (MGEA5), also referred to as O-GlcNAcase (OGA) (Homo sapiens, UniProt O60502); assay: OGA biochemical assay (inhibition of FM-GlcNAc hydrolysis, fluorescence); settings: FM-GlcNAc substrate; for IC50: read-out: Enzymatic hOGA, pIC50 (converted); for Emax: read-out: Enzymatic Emax (%)
T1 construct: Full length OGA enzyme was purchased at OriGene (cat #TP322411); purchased OriGene TP322411
T1 sequence (O60502 1-916): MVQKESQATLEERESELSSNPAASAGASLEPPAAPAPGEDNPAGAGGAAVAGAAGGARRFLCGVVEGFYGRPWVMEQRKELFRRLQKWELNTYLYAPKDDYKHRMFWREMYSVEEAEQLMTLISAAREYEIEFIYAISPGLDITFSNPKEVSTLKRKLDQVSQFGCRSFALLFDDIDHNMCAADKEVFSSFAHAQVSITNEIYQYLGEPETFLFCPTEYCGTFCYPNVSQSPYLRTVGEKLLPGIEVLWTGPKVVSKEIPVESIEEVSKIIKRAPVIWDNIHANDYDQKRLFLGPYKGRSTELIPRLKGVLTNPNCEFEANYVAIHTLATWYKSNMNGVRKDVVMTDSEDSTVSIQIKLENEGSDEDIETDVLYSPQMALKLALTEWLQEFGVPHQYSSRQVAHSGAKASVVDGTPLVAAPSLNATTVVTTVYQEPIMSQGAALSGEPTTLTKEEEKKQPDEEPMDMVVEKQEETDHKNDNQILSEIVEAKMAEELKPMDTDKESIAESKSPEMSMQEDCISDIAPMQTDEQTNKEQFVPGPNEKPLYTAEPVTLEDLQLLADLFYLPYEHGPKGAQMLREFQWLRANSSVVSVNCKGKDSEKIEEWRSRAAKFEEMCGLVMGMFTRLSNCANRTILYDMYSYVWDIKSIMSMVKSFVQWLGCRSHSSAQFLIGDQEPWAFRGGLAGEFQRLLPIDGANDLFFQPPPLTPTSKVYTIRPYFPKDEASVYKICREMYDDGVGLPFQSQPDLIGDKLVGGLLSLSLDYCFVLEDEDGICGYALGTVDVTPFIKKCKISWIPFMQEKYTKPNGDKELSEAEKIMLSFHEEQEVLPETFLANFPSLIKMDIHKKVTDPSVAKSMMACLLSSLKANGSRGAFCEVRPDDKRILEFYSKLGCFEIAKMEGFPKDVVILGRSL
How it was run: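 Full-length OGA (2 nM) pre-incubated 60 min at room temperature with compound, then FM-GlcNAc (100 uM final) hydrolysed 6 h at room temperature in 200 mM citrate/phosphate pH 7.2 with 0.005% Tween-20. Stopped with carbonate pH 11.0; fluorescein read at ex 485/em 538 nm. IC50 and Hill coefficient from curve fit between no-inhibitor and saturating-standard controls.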

OGA = biological target: T2, OGA (Homo sapiens, UniProt O60502); assay: OGA cellular assay (ICC detection of O-GlcNAcylated proteins in HEK293 cells inducible for P301L mutant human Tau); assay type: cell-based; settings: for Emax: HEK293, HEK293 cells inducible for P301L mutant human Tau; for EC50: 6 hours incubation, read-out: Cellular hOGA, pEC50 (converted)
T2 construct: HEK293 cells inducible for P301L mutant human Tau (isoform 2N4R) were established at Janssen; endogenous in cells; host or cells: HEK293 cells inducible for P301L mutant human Tau (2N4R)
T2 sequence (O60502 1-916): T1 sequence (O60502 1-916)
How it was run: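 HEK293 cells inducible for P301L Tau (2N4R), seeded in low-glucose medium, treated with compound for 6 h at 0.2% DMSO. O-GlcNAc immunostained with CTD110.6 after PFA fixation; 488 nm intensity imaged, Hoechst nuclei counted for toxicity. IC50 by non-linear regression, 200 uM Thiamet G as maximum.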

[2] = HEK293 cells inducible for P301L mutant human Tau

SMILES: Cc1cc(C[C@H]2CCCN(C(C)c3cnc4[nH]c(C)nc4c3)C2)cc(C)n1 (single isomer, unassigned) [Compound 6a]
- IC50 ([1]; 6 h at room temperature): 1580 nM
- Emax ([1]; maximal effect): 89%
- melting point: 180.52 °C

SMILES: COc1cc(N[C@H]2CCCN(C(C)c3ccc4sc(C)nc4n3)C2)cc(C)n1 (some centres unmarked) [Compound 83]
- IC50 ([1]; 6 h at room temperature): 10 nM
- Emax ([1]; maximal effect): 96%
- Emax (OGA; maximum = Thiamet G 200 uM): 78%
- EC50 (OGA; [2]): 102 nM

SMILES: Cc1cc(CN[C@H]2CCCN(C(C)c3ccc4sc(C)nc4n3)C2)cc(C)n1 (some centres unmarked) [Compound 84]
- IC50 ([1]; 6 h at room temperature): 25.1 nM
- Emax ([1]; maximal effect): 98%
- Emax (OGA; maximum = Thiamet G 200 uM): 66%
- EC50 (OGA; [2]): 501 nM

SMILES: Cc1cc(O[C@@H]2CCN(C(C)c3cc4nc(C)sc4cc3F)C2)cc(C)n1 (some centres unmarked) [Compound 88]
- IC50 ([1]; 6 h at room temperature): 3.16 nM
- Emax ([1]; maximal effect): 99%
- Emax (OGA; maximum = Thiamet G 200 uM): 66%
- EC50 (OGA; [2]): 251 nM

SMILES: Cc1cc(C2CCCN(C(C)c3cc4nc(C)sc4cc3F)C2)cc(C)n1 (centres unmarked) [Compound 89]
- IC50 ([1]; 6 h at room temperature): 6.31 nM
- Emax ([1]; maximal effect): 102%
- Emax (OGA; maximum = Thiamet G 200 uM): 64%
- EC50 (OGA; [2]): 15.8 nM

SMILES: Cc1cc(C2CCCN(C(C)c3cc4nc(C)sc4cc3F)C2)cc(C)n1 (centres unmarked) [Compound 90]
- Enzymatic hOGA; pIC50 ([1]; 6 h at room temperature): 8.2
- Enzymatic Emax (%) ([1]; maximal effect): 101%
- EC50 (OGA; [2]): 31.6 nM
- Cellular Emax (%) (OGA; HEK293 cells inducible for P301L mutant human Tau, maximum = Thiamet G 200 uM): 84%

SMILES: Cc1cc(OC[C@H]2CCCN(C(C)c3nc4nc(C)sc4cc3F)C2)cc(C)n1 (some centres unmarked) [Compound 91]
- IC50 ([1]; 6 h at room temperature): 3.98 nM
- Emax ([1]; maximal effect): 101%
- Emax (OGA; maximum = Thiamet G 200 uM): 66%
- EC50 (OGA; [2]): 7.94 nM

SMILES: Cc1cc(O[C@@H]2CCN(C(C)c3nc4nc(C)sc4cc3F)C2)cc(C)n1 (some centres unmarked) [Compound 92]
- IC50 ([1]; 6 h at room temperature): 39.8 nM
- Emax ([1]; maximal effect): 99%
- Emax (OGA; maximum = Thiamet G 200 uM): 28%
- EC50 (OGA; [2]): > 1000 nM

SMILES: Cc1cc(OC[C@H]2CCCN(C(C)c3cc4nc(C)sc4cc3F)C2)cc(C)n1 (some centres unmarked) [Compound 98]
- IC50 ([1]; 6 h at room temperature): 2.51 nM
- Emax ([1]; maximal effect): 102%
- Emax (OGA; maximum = Thiamet G 200 uM): 60%
- EC50 (OGA; [2]): 12.6 nM

SMILES: Cc1cc(C[C@H]2CCN(C(C)c3cnc4[nH]c(C)nc4c3)C2)cc(C)n1 (some centres unmarked) [Compound 102]
- IC50 ([1]; 6 h at room temperature): 398 nM
- Emax ([1]; maximal effect): 96%
- Emax (OGA; maximum = Thiamet G 200 uM): 32%
- EC50 (OGA; [2]): > 1000 nM

SMILES: Cc1cc(C[C@H]2CCN(C(C)c3cnc4[nH]c(C)nc4c3)C2)cc(C(F)(F)F)n1 (some centres unmarked) [Compound 104]
- IC50 ([1]; 6 h at room temperature): 501 nM
- Emax ([1]; maximal effect): 94%
- Emax (OGA; maximum = Thiamet G 200 uM): 20%
- EC50 (OGA; [2]): > 1000 nM

SMILES: Cc1cc(NCC2CCCN(C(C)c3ccc4sc(C)nc4n3)C2)cc(C)n1 (centres unmarked) [Compound 105]
- IC50 ([1]; 6 h at room temperature): 501 nM
- Emax ([1]; maximal effect): 94%
- Emax (OGA; maximum = Thiamet G 200 uM): 14%
- EC50 (OGA; [2]): > 1000 nM

SMILES: COc1cc(CN[C@H]2CCCN(C(C)c3ccc4sc(C)nc4n3)C2)cc(C)n1 (some centres unmarked) [Compound 107]
- IC50 ([1]; 6 h at room temperature): 63.1 nM
- Emax ([1]; maximal effect): 93%
- Emax (OGA; maximum = Thiamet G 200 uM): 60%
- EC50 (OGA; [2]): 794 nM

SMILES: Cc1cc(NC[C@H]2CCCN(C(C)c3ccc4sc(C)nc4n3)C2)nc(C)n1 (some centres unmarked) [Compound 108]
- IC50 ([1]; 6 h at room temperature): 7.94 nM
- Emax ([1]; maximal effect): 101%
- Emax (OGA; maximum = Thiamet G 200 uM): 84%
- EC50 (OGA; [2]): 12.6 nM

SMILES: COc1cc(NC[C@H]2CCCN(C(C)c3ccc4sc(C)nc4n3)C2)cc(C)n1 (some centres unmarked) [Compound 109]
- IC50 ([1]; 6 h at room temperature): 6.31 nM
- Emax ([1]; maximal effect): 100%
- Emax (OGA; maximum = Thiamet G 200 uM): 89%
- EC50 (OGA; [2]): 10 nM
